Laboratory results published in PMC11124136, “New Thiazolidine-4-One Derivatives as SARS-CoV-2 Main Protease Inhibitors” (Pharmaceuticals, 2024).

Molecular target: SARS-CoV-2 Mpro (Severe acute respiratory syndrome coronavirus 2, UniProt P0DTD1)
Assay: biochemical
Type: biochemical
Conditions: for SARS-CoV-2 Mpro inhibition, result in words: inactivity = IC50 > 30 μM; for IC50: FRET assay, concentration reducing Mpro activity by 50%, mean ± SD of three independent experiments, highest concentration tested 30 μM

SMILES | SARS-CoV-2 Mpro inhibition, result in words | IC50 [µM]
O=C1CSC(c2ccc([N+](=O)[O-])cc2)N1CCc1cccc(F)c1 (stereo not drawn) [Compound 4c, 2-(4-nitrophenyl)-3-(3-fluorophenylethyl)-1,3-thiazolidin-4-one] | inactive | 
O=C1CSC(c2ccc([N+](=O)[O-])cc2)N1CCc1ccc(Cl)cc1 (stereo not drawn) [Compound 4i] | inactive | > 30
O=C1CSC(c2ccc([N+](=O)[O-])cc2)N1CCc1ccccc1Cl (stereo not drawn) [Compound 4g] |  | 26 ± 4
COc1ccc(CCN2C(=O)CSC2c2ccc([N+](=O)[O-])cc2)cc1 (stereo not drawn) [Compound 4f] | inactive | > 30
COc1ccccc1CCN1C(=O)CSC1c1ccc([N+](=O)[O-])cc1 (stereo not drawn) [Compound 4e] | inactive | > 30
O=C1CSC(c2ccc([N+](=O)[O-])cc2)N1CCc1ccccc1 (stereo not drawn) [Compound 4a, 2-(4-nitrophenyl)-3-(phenylethyl)-1,3-thiazolidin-4-one] | inactive | 
